Test results reported in patent publication US20180362491A1, “STEREOISOMER OF FLOCOUMAFEN, COMPOSITION AND RODENTICIDE BAIT COMPRISING SAME, AND METHOD FOR CONTROLLING TARGET RODENT PESTS” (priority 2015, published 2018).

Format: in vivo, rat
Settings: male and female rats, D+1 to D+7 after oral tube-feeding
Description: The configurational stereoisomers of flocoumafen are separated by high-pressure liquid chromatography using a LUX® Cellulose-4 chiral column (00F-4490-B0, Phenomenex, Le Pecq, France) as stationary phase and a mixture formed from acetonitrile (A) and water comprising 0.1% by volume of formic acid (B), with an AB volume ratio of 92/8, as mobile phase with a flow rate of the liquid mobile phase in the chromatography column of 0.25 mL/minute. 1 μL of extract comprising flocoumafen at a concentration of 1 μg/mL of acetonitrile is injected. Detection is performed by tandem mass spectrometry (MS/MS) in negative electrospray ionization (ESI) mode. The temperature of the nebulizer gas is 350° C. and its flow rate is 8 L/minute. The pressure of the nebulizer gas is brought to 2700 hPa. In particular, the MRM (“Multiple Reaction Monitoring”) transitions m/z 541.1→382.1 and m/z 541.1→161, corresponding to the flocoumafen signal, are detected.
About 0.525 g(±0.025 g) of rat liver is weighed out accurately and placed in a 50 mL polypropylene tube. 10 mL of acetone are added and the suspension is homogenized using an UltraTurrax® homogenizer/disperser for a time of about 30 seconds. The homogenizer/disperser shaft is rinsed with hot water and then twice with 20 mL of acetone in a polypropylene tube. […]

Structure (SMILES): O=c1oc2ccccc2c(O)c1C1CC(c2ccc(OCc3ccc(C(F)(F)F)cc3)cc2)Cc2ccccc21 (single isomer, unassigned) [Enantiomer E3, flocoumafen]
- Persistence in the liver (in words, relative to enantiomer E4 and flocoumafen): lower than the persistence of enantiomer E4 of said diastereoisomer D1,4 and lower than the persistence of flocoumafen
